Experimental data published in patent US12349677B2, “Antimicrobial composition” (CONOPCO, INC., priority 2018, dated 2025).

Test system: E. coli ATCC 10536
Assay: In-vitro antibacterial efficacy (bacteria remaining after 4 hours contact, plate count)
Type: cell-based
Settings: contact time 4 hours at 37° C.
Procedure: The following samples were tested for in-vitro antibacterial efficacy using the below mentioned protocol
Sodium phosphate buffer 10 mM for culture preparation pH 7.4
The test organism was subcultured from the glycerol stock (stored at −70° C.) onto a TSA slant and incubated at 37° C. for 18 to 24 hours. The slant was stored in a refrigerator for a maximum of two weeks after which a fresh slant was prepared.
The test organisms were streaked from TSA slants onto petri plates containing TSA and incubated at 37° C. for 21 to 22 hours before use.
The bacterial inoculums were prepared corresponding to 10^6 cells in 10 mM Sodium Phosphate Buffer from the above plate.
The OD of culture was adjusted to 0.8 for E. coli, to give 10^8 cells/ml. Once the bacterial inoculums corresponding to 10^8 cells is prepared in sodium phosphate buffer, it is serially diluted to 10^6 cells ([…] in 10 mM sodium phosphate buffer)
135 μl bacterial inoculums (from 10^6 CFU/ml) was taken for all the treatments in a reaction volume of 300 μl (in a microtiter plate/96 well plate).
15 μl of 100 mM buffer was taken for all controls and treatments so that the final conc. corresponds to ˜5 mM in all the reactions.
The respective compounds/actives to be tested were taken and made up to a volume of 300 μl with autoclaved distilled water.
Note: Each treatment is kept in duplicates.
The microtiter plate was incubated at 37° C. for a contact time of 4 hours and then plated on TSA after required serial dilutions in neutralizer D/E to study bacterial kill.
Plates were incubated overnight for E. coli
The colonies were counted to estimate the bacteria remaining and thereby the log kill.
Experiments similar to the ones carried out for thymol+THPE were carried out with carvacrol+THPE. The antibacterial efficacy was measured in vitro as detailed above for examples 1 and A-C.
Experiments similar to the ones carried out for thymol+THPE were carried out with eugenol+THPE. The antibacterial efficacy was measured in vitro as detailed above for examples 1 and A-C.

[1] = Table 4, carvacrol/THPE series, culture control 6.41
[2] = Table 1, thymol/THPE series, culture control 6.36
[3] = Table 5, eugenol/THPE series, culture control 6.23

## Cc1ccc(C(C)C)cc1O [F, carvacrol]
[1]
  Average of bacteria remaining: 6.12 log cfu/ml

## Cc1ccc(C(C)C)c(O)c1 [C, thymol]
[2]
  Average of bacteria remaining: 6.26 log cfu/ml

## CC(O)CN(CCN(CC(C)O)CC(C)O)CC(C)O (stereo not shown) [B, tetrahydroxypropyl ethylenediamine]
[2]
  Average of bacteria remaining: 5.98 log cfu/ml

## CC(O)CN(CCN(CC(C)O)CC(C)O)CC(C)O (stereo not shown) [K, tetrahydroxypropyl ethylenediamine]
[3]
  Average of bacteria remaining: 5.44 log cfu/ml

## C=CCc1ccc(O)c(OC)c1 [J, Eugenol]
[3]
  Average of bacteria remaining: 6.15 log cfu/ml

## CC(O)CN(CCN(CC(C)O)CC(C)O)CC(C)O (stereo not shown) [G, tetrahydroxypropyl ethylenediamine]
[1]
  Average of bacteria remaining: 5.97 log cfu/ml

## CC(O)CN(CCN(CC(C)O)CC(C)O)CC(C)O (stereo not shown) [H, tetrahydroxypropyl ethylenediamine]
[1]
  Average of bacteria remaining: 5.45 log cfu/ml
